Reference: ChEMBL document CHEMBL1148182, “Flavonone and chalcone derivatives from Cryptocarya kurzii” (J Nat Prod, 1993)
Values after ≈ are worked out from the molar mass of the structure shown.

System: KB
Assay: Cytotoxicity against human KB cells
Type: functional, cell-based

| SMILES | IC50 [µg/mL] |
| --- | --- |
| O=C1CCC[C@@H]2C[C@H](C[C@](O)(/C=C/c3ccccc3)O2)c2c(cc(O)c(C(=O)/C=C/c3ccccc3)c2O)O1 [KURZICHALCOLACTONE] | 15 (≈ 28.5 µM) |
| O=C1CCC[C@@H]2C[C@H](C[C@](O)(/C=C/c3ccccc3)O2)c2c(cc(O)c3c2O[C@H](c2ccccc2)CC3=O)O1 [KURZIFLAVOLACTONE B] | 4 (≈ 7.6 µM) |
